Assay results as given in publication PMC6968685 (Journal of Enzyme Inhibition and Medicinal Chemistry, 2020).
Structures can show the parent of a compound that is named as a salt.

Row | Structure (SMILES) | melting point
1 | COc1ccc2nc(-c3ccc(CNCCCN(C)C)cc3)cc(-c3ccc(CNCCCN(C)C)cc3)c2c1 (as salt: (cooh)2) [Compound 1j, 6-Methoxy-2,4-bis{4-[(3-dimethylaminopropyl)aminomethyl]phenyl}quinoline] | 224 to 226 °C
2 | CN1CCN(CCCCNCc2ccc(-c3cc4ccccc4c(-c4ccc(CNCCCCN5CCN(C)CC5)cc4)n3)cc2)CC1 (as salt: (cooh)2) [Compound 2c, 1,3-Bis{4-[(4–(4-methylpiperazin-1-yl)butyl)aminomethyl]phenyl}isoquinoline] | 181 to 183 °C
3 | COc1ccc2c(-c3ccc(CNCCCCN4CCN(C)CC4)cc3)nc(-c3ccc(CNCCCCN4CCN(C)CC4)cc3)nc2c1 (as salt: (cooh)2) [Compound 3p, 7-Methoxy-2,4-bis{4-[(4–(4-methylpiperazin-1-yl)butyl)aminomethyl]phenyl}quinazoline] | 222 to 224 °C
4 | CN(C)CCCNCc1cccc(-c2cc(-c3cccc(CNCCCN(C)C)c3)c3ccccc3n2)c1 (as salt: (cooh)2) [Compound 1q, 2,4-Bis{3-[(3-dimethylaminopropyl)aminomethyl]phenyl}quinoline] | 243 to 245 °C
5 | COc1ccc2c(-c3ccc(CNCCN(C)C)cc3)nc(-c3ccc(CNCCN(C)C)cc3)nc2c1 (as salt: (cooh)2) [Compound 3o, 7-Methoxy-2,4-bis{4-[(2-dimethylaminoethyl)aminomethyl]phenyl}quinazoline] | 234 to 236 °C
6 | COc1ccc2nc(-c3ccc(CNCCCN4CCN(C)CC4)cc3)cc(-c3ccc(CNCCCN4CCN(C)CC4)cc3)c2c1 (as salt: (cooh)2) [Compound 1l, 6-Methoxy-2,4-bis{4-[(3–(4-methylpiperazin-1-yl)propyl)aminomethyl]phenyl}quinoline] | 223 to 225 °C
7 | COc1ccc2cc(-c3ccc(CNCCCN4CCN(C)CC4)cc3)nc(-c3ccc(CNCCCN4CCN(C)CC4)cc3)c2c1 (as salt: (cooh)2) [Compound 2h, 7-Methoxy-1,3-bis{4-[(3–(4-methylpiperazin-1-yl)propyl)aminomethyl]phenyl}isoquinoline] | 195 to 197 °C
8 | COc1ccc2c(-c3ccc(CNCCCN4CCN(C)CC4)cc3)nc(-c3ccc(CNCCCN4CCN(C)CC4)cc3)cc2c1 (as salt: (cooh)2) [Compound 2l] | 226 to 228 °C
9 | CN(C)CCCNCc1ccc(-c2cc3ccccc3c(-c3ccc(CNCCCN(C)C)cc3)n2)cc1 (as salt: (cooh)2) [Compound 2b, 1,3-Bis{4-[(3-dimethylaminopropyl)aminomethyl]phenyl}isoquinoline] | 186 to 188 °C
10 | COc1ccc2c(-c3ccc(CNCCCCN(C)C)cc3)nc(-c3ccc(CNCCCCN(C)C)cc3)cc2c1 (as salt: (cooh)2) [Compound 2i, 6-Methoxy-1,3-bis{4-[(4-dimethylaminobutyl)aminomethyl]phenyl}isoquinoline] | 135 to 137 °C
11 | COc1ccc2cc(-c3ccc(CNCCCN(C)C)cc3)nc(-c3ccc(CNCCCN(C)C)cc3)c2c1 (as salt: (cooh)2) [Compound 2f, 7-Methoxy-1,3-bis{4-[(3-dimethylaminopropyl)aminomethyl]phenyl}isoquinoline] | 178 to 180 °C
12 | COc1ccc2nc(-c3ccc(CNCCCCN4CCN(C)CC4)cc3)cc(-c3ccc(CNCCCCN4CCN(C)CC4)cc3)c2c1 (as salt: (cooh)2) [Compound 1k, 6-Methoxy-2,4-bis{4-[(4–(4-methylpiperazin-1-yl)butyl)aminomethyl]phenyl}quinoline] | 235 to 237 °C
13 | COc1ccc2nc(-c3ccc(CNCCCN(C)C)cc3)nc(-c3ccc(CNCCCN(C)C)cc3)c2c1 (as salt: (cooh)2) [Compound 3i, 6-Methoxy-2,4-bis{4-[(3-dimethylaminopropyl)aminomethyl]phenyl}quinazoline] | 243 to 245 °C
